Assay type in all cases: functional
The test system of test [1] is Mus musculus. The experiment in a line: Mean survival time of Plasmodium berghei infected mice (Mus musculus) after administration of single dose of […] intravenously.
Test [2] concerns Mus musculus. The experiment in a line: Mean survival time of Plasmodium berghei infected mice (Mus musculus) after administration of single dose of 640 mg/kg intravenously. As to conditions: route intravenous.
The subject of test [3] is Mus musculus. The experiment in a line: Mean survival time of Plasmodium berghei infected mice (Mus musculus) after administration of single dose of 160 mg/kg intravenously. As to conditions: route intravenous.
The subject of test [4] is Mus musculus. The experiment in a line: Mean survival time of Plasmodium berghei infected mice (Mus musculus) after administration of single dose of 20 mg/kg intravenously. As to conditions: route intravenous.
The subject of test [5] is Mus musculus. Description: Mean survival time of Plasmodium berghei infected mice (Mus musculus) after administration of single dose of 80 mg/kg intravenously. As to conditions: route intravenous.
The test system of test [6] is Mus musculus. Description: Mean survival time of Plasmodium berghei infected mice (Mus musculus) after administration of single dose of 40 mg/kg intravenously. Conditions: route intravenous.

“And” between values parts separate entries of the source, which are not always exact repeats. Equal values may be shown once.

As to `CCCC(CCCN)Nc1cc(OC)cc2c(C)ccnc12.O=P(O)(O)O` (centres undefined), the MST in test [1] amounted to 9.1 days; in test [2] it was 12.3 days; in test [3], 6.3 days; in test [4], 3.1 days; in test [5] it was 5.7 days; in test [6], 4.1 days.

With `COc1cc(NC(C)CCCN)c2ncccc2c1.O=P(O)(O)O.O=P(O)(O)O` (centres undefined) [PRIMAQUINE PHOSPHATE], the MST in test [1] was 5 days; in test [2] it was 5 days; in test [3] (160 mg/kg) it was 7 days and 10.8 days; in test [4] (20 mg/kg), 2.2 days and 4 days; in test [5] (80 mg/kg), 6.4 days and 9.4 days; in test [6] (40 mg/kg), 4.2 days and 5 days.

For the compound `COc1cc(NC(CCCN)C(C)C)c2nccc(C)c2c1.O=P(O)(O)O` (centres undefined), the MST in test [1] is 7.2 days; in test [2], 1 days; in test [3], 7.8 days; in test [4] it was 3.4 days; in test [5], 6.8 days; in test [6], 5.2 days.

As to `CCC(CCCN)Nc1cc(OC)cc2c(C)ccnc12.O=P(O)(O)O` (centres undefined), the MST in test [1] was found to be 5 days; in test [2], 5 days; in test [3], 11.5 days; in test [4], 7.3 days; in test [5], 9.7 days; in test [6], 7.9 days.
